# Measured values published in patent EP4707284A1, “HETEROCYCLIC COMPOUND AND USE THEREOF” (Otsuka Pharmaceutical Co., Ltd., priority 2023, dated 2024).
# Assay type: physicochemical
# Conditions: Tris-hydrochloric acid buffer (pH 7.5) 50 mmol/L, magnesium chloride 5 mmol/L, evaluation compound 1 µmol/L, 37°C, 60 minutes, average of duplicate
# Procedure, shortened: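 Conversion of compounds to brexpiprazole measured in buffer at 37°C, in duplicate: compound added after 3 min pre-incubation of reaction solution, and reaction stopped at 0 or 60 min with acetonitrile/isopropanol (4:1) containing internal standards. Quantified against calibration samples at 0.01, 0.1 and 1 µmol/L.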
Concentration of brexpiprazole formed,Concentration of evaluation compound decreased,SMILES
0 nM,50 nM,CCC(C)(C)C(=O)OCOP(=O)([O-])OC[N+]1(CCCCOc2ccc3ccc(=O)[nH]c3c2)CCN(c2cccc3sccc23)CC1 [EX 122]
0 nM,70 nM,CCCCOCCOCCOC(=O)OCOP(=O)([O-])OC[N+]1(CCCCOc2ccc3ccc(=O)[nH]c3c2)CCN(c2cccc3sccc23)CC1 [EX 135]
0 nM,-10 nM,O=C(OCOP(=O)([O-])OC[N+]1(CCCCOc2ccc3ccc(=O)[nH]c3c2)CCN(c2cccc3sccc23)CC1)N1CCOCC1 [EX 160]
0 nM,140 nM,O=c1ccc2ccc(OCCCC[N+]3(COP(=O)([O-])OCCN4CCC(F)(F)CC4)CCN(c4cccc5sccc45)CC3)cc2[nH]1 [EX 119]
0 nM,90 nM,CCCCOCCOCCOCCOC(=O)OCOP(=O)([O-])OC[N+]1(CCCCOc2ccc3ccc(=O)[nH]c3c2)CCN(c2cccc3sccc23)CC1 [EX 138]
0 nM,80 nM,C[C@H](NP(=O)([O-])OC[N+]1(CCCCOc2ccc3ccc(=O)[nH]c3c2)CCN(c2cccc3sccc23)CC1)C(=O)OC(C)(C)C [EX 157]
0 nM,40 nM,O=C(OCOP(=O)([O-])OC[N+]1(CCCCOc2ccc3ccc(=O)[nH]c3c2)CCN(c2cccc3sccc23)CC1)C1CCOCC1 [EX 127]
0 nM,60 nM,CC(C)OC(=O)[C@H](C)NP(=O)([O-])OC[N+]1(CCCCOc2ccc3ccc(=O)[nH]c3c2)CCN(c2cccc3sccc23)CC1 [EX 159]
0 nM,20 nM,O=C(OCOP(=O)([O-])OC[N+]1(CCCCOc2ccc3ccc(=O)[nH]c3c2)CCN(c2cccc3sccc23)CC1)OC1CCOCC1 [EX 141]
0 nM,-30 nM,CC(C)(C)OC(=O)NC(C)(C)C(=O)OCOP(=O)([O-])OC[N+]1(CCCCOc2ccc3ccc(=O)[nH]c3c2)CCN(c2cccc3sccc23)CC1 [EX 128]
0 nM,130 nM,CCOCCOC(=O)OCOP(=O)([O-])OC[N+]1(CCCCOc2ccc3ccc(=O)[nH]c3c2)CCN(c2cccc3sccc23)CC1 [EX 132]
0 nM,90 nM,CCCC(=O)OCOP(=O)([O-])OC[N+]1(CCCCOc2ccc3ccc(=O)[nH]c3c2)CCN(c2cccc3sccc23)CC1 [EX 121]
0 nM,10 nM,COCCNP(=O)([O-])OC[N+]1(CCCCOc2ccc3ccc(=O)[nH]c3c2)CCN(c2cccc3sccc23)CC1 [EX 152]
0 nM,-70 nM,O=C(OCOP(=O)([O-])OC[N+]1(CCCCOc2ccc3ccc(=O)[nH]c3c2)CCN(c2cccc3sccc23)CC1)OCC1CCOCC1 [EX 142]
0 nM,-20 nM,O=C(OCCCOC1CCCCO1)OCOP(=O)([O-])OC[N+]1(CCCCOc2ccc3ccc(=O)[nH]c3c2)CCN(c2cccc3sccc23)CC1 (centres unmarked) [EX 140]

# The remaining lines, values behind:
SMILES,Concentration of brexpiprazole formed,Concentration of evaluation compound decreased
O=C(O)CCCC(=O)OCOP(=O)([O-])OC[N+]1(CCCCOc2ccc3ccc(=O)[nH]c3c2)CCN(c2cccc3sccc23)CC1 [EX 70],0 nM,0 nM
CC(C)OC(=O)[C@@H](C)OP(=O)([O-])OC[N+]1(CCCCOc2ccc3ccc(=O)[nH]c3c2)CCN(c2cccc3sccc23)CC1 [EX 105],0 nM,50 nM
O=c1ccc2ccc(OCCCC[N+]3(COP(=O)([O-])OCCN4CCCCC4)CCN(c4cccc5sccc45)CC3)cc2[nH]1 [EX 118],0 nM,60 nM
CC(O)CCOP(=O)([O-])OC[N+]1(CCCCOc2ccc3ccc(=O)[nH]c3c2)CCN(c2cccc3sccc23)CC1 (centres unmarked) [EX 40],0 nM,60 nM
COCCCOP(=O)([O-])OC[N+]1(CCCCOc2ccc3ccc(=O)[nH]c3c2)CCN(c2cccc3sccc23)CC1 [EX 49],0 nM,50 nM
O=c1ccc2ccc(OCCCC[N+]3(COP(=O)([O-])OCC4(CO)CC4)CCN(c4cccc5sccc45)CC3)cc2[nH]1 [EX 47],0 nM,0 nM
CC(C)COCCOP(=O)([O-])OC[N+]1(CCCCOc2ccc3ccc(=O)[nH]c3c2)CCN(c2cccc3sccc23)CC1 [EX 51],0 nM,50 nM
CCCOP(=O)([O-])OC[N+]1(CCCCOc2ccc3ccc(=O)[nH]c3c2)CCN(c2cccc3sccc23)CC1 [EX 88],0 nM,-10 nM
O=c1ccc2ccc(OCCCC[N+]3(COP(=O)([O-])OC/C=C\CO)CCN(c4cccc5sccc45)CC3)cc2[nH]1 [EX 43],0 nM,120 nM
CC1(C)OCC(NC(=O)CCCC(=O)OCOP(=O)([O-])OC[N+]2(CCCCOc3ccc4ccc(=O)[nH]c4c3)CCN(c3cccc4sccc34)CC2)CO1 [EX 74],0 nM,50 nM
CCCCCCCC(=O)OC(C)OP(=O)([O-])OC[N+]1(CCCCOc2ccc3ccc(=O)[nH]c3c2)CCN(c2cccc3sccc23)CC1 (centres unmarked) [EX 26],0 nM,50 nM
CC(C)(CC(=O)O)CC(=O)OCOP(=O)([O-])OC[N+]1(CCCCOc2ccc3ccc(=O)[nH]c3c2)CCN(c2cccc3sccc23)CC1 [EX 71],0 nM,100 nM
CCOCCOP(=O)([O-])OC[N+]1(CCCCOc2ccc3ccc(=O)[nH]c3c2)CCN(c2cccc3sccc23)CC1 [EX 94],0 nM,-70 nM
O=c1ccc2ccc(OCCCC[N+]3(COP(=O)([O-])OCC4CC4)CCN(c4cccc5sccc45)CC3)cc2[nH]1 [EX 91],0 nM,120 nM
Cc1cccc(C(=O)OCCCCCCOP(=O)([O-])OC[N+]2(CCCCOc3ccc4ccc(=O)[nH]c4c3)CCN(c3cccc4sccc34)CC2)n1 [EX 59],0 nM,50 nM
COCCCCOC(=O)OCOP(=O)([O-])OC[N+]1(CCCCOc2ccc3ccc(=O)[nH]c3c2)CCN(c2cccc3sccc23)CC1 [EX 36],0 nM,-40 nM
CC(C)NC(=O)CCCC(=O)OCOP(=O)([O-])OC[N+]1(CCCCOc2ccc3ccc(=O)[nH]c3c2)CCN(c2cccc3sccc23)CC1 [EX 73],0 nM,130 nM
COC(=O)[C@H](COP(=O)([O-])OC[N+]1(CCCCOc2ccc3ccc(=O)[nH]c3c2)CCN(c2cccc3sccc23)CC1)NC(=O)OC(C)(C)C [EX 83],0 nM,70 nM
O=c1ccc2ccc(OCCCC[N+]3(COP(=O)([O-])OCCCCCCCO)CCN(c4cccc5sccc45)CC3)cc2[nH]1 [EX 45],0 nM,70 nM
O=c1ccc2ccc(OCCCC[N+]3(COP(=O)([O-])OCCCCCCO)CCN(c4cccc5sccc45)CC3)cc2[nH]1 [EX 44],0 nM,-50 nM
CC(C)(CO)COP(=O)([O-])OC[N+]1(CCCCOc2ccc3ccc(=O)[nH]c3c2)CCN(c2cccc3sccc23)CC1 [EX 48],0 nM,-30 nM
CCCOCCOP(=O)([O-])OC[N+]1(CCCCOc2ccc3ccc(=O)[nH]c3c2)CCN(c2cccc3sccc23)CC1 [EX 95],0 nM,-10 nM
CSCCCOP(=O)([O-])OC[N+]1(CCCCOc2ccc3ccc(=O)[nH]c3c2)CCN(c2cccc3sccc23)CC1 [EX 66],0 nM,170 nM
O=c1ccc2ccc(OCCCC[N+]3(COP(=O)([O-])OC/C=C/CO)CCN(c4cccc5sccc45)CC3)cc2[nH]1 [EX 42],0 nM,30 nM
O=C(OCCCCCCOP(=O)([O-])OC[N+]1(CCCCOc2ccc3ccc(=O)[nH]c3c2)CCN(c2cccc3sccc23)CC1)c1ccccc1 [EX 57],0 nM,90 nM
COCCC(=O)OCOP(=O)([O-])OC[N+]1(CCCCOc2ccc3ccc(=O)[nH]c3c2)CCN(c2cccc3sccc23)CC1 [EX 28],-10 nM,-70 nM
CCOC(=O)C[C@@H](OP(=O)([O-])OC[N+]1(CCCCOc2ccc3ccc(=O)[nH]c3c2)CCN(c2cccc3sccc23)CC1)C(=O)OCC [EX 111],0 nM,20 nM
CC1(C)O[C@H]2[C@@H](O1)[C@@H](COP(=O)([O-])OC[N+]1(CCCCOc3ccc4ccc(=O)[nH]c4c3)CCN(c3cccc4sccc34)CC1)O[C@@H]1OC(C)(C)O[C@@H]12 [EX 100],0 nM,50 nM
